≈ marks a conversion by molar mass, not a printed value.
How the values were obtained:
Assay in all cases: MIC, broth microdilution (NCCLS)
[1] = tested on: Enterococcus faecalis Enfa_29212; type: cell-based; details: Table 5, Strain ID C (Table 4): E. faecalis Enfa_29212
Outline: (§1)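 NCCLS broth microdilution with 2-fold serial drug dilutions (methanol stocks diluted in water); inoculum 3×10^5–7×10^5 CFU/ml in CAMHB, with 2-5% lysed horse blood for S. pneumoniae. Incubation 18-24 h at 35° C., ambient air, except S. pneumoniae (5-10% CO2). MIC is lowest concentration preventing visible growth.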

[2] = tested on: Haemophilus influenzae Hain_49247; type: cell-based; details: Table 5, Strain ID L (Table 4): H. influenzae Hain_49247; unit assumed
[3] = tested on: Staphylococcus epidermidis Step_14990; type: cell-based; details: Table 5, Strain ID A (Table 4): S. epidermidis Step_14990; in µg/mL (unit assumed)
Outline: as §1

[4] = tested on: Staphylococcus epidermidis Step_f50654; type: cell-based; details: Table 5, Strain ID B (Table 4): S. epidermidis Step_f50654 Pen S; in µg/mL (unit assumed)
Outline: as §1

[5] = tested on: Streptococcus pneumoniae Stpn_Erm S 4297; type: cell-based; details: Table 5, Strain ID I (Table 4): S. pneumoniae Stpn_Erm S 4297
Outline: as §1

[6] = tested on: Streptococcus pneumoniae Stpn_Mef S 3427; type: cell-based; details: Table 5, Strain ID K (Table 4): S. pneumoniae Stpn_Mef S 3427
Outline: as §1

[7] = tested on: Streptococcus pyogenes Stpy_8668; type: cell-based; details: Table 5, Strain ID D (Table 4): S. pyogenes Stpy_8668
Outline: as §1

[8] = tested on: Streptococcus pneumoniae Stpn_49619; type: cell-based; details: Table 5, Strain ID E (Table 4): S. pneumoniae Stpn_49619
Outline: as §1

[9] = tested on: Streptococcus pneumoniae Stpn_297-749; type: cell-based; details: Table 5, Strain ID F (Table 4): S. pneumoniae Stpn_297-749 Pen R
Outline: as §1

[10] = tested on: Streptococcus pneumoniae Stpn_280-962; type: cell-based; details: Table 5, Strain ID G (Table 4): S. pneumoniae Stpn_280-962 Pen S
Outline: as §1

[11] = tested on: S. pneumoniae Stpn_Erm 6849; type: cell-based, Streptococcus pneumoniae; details: Table 5, Strain ID H (Table 4): S. pneumoniae Stpn_Erm 6849; unit assumed
Outline: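 S. pneumoniae MIC by NCCLS broth microdilution in cation-adjusted Mueller-Hinton broth with 2-5% lysed horse blood, inoculum 3×10^5–7×10^5 CFU/ml, 2-fold drug dilutions. Incubated 18-24 hours at 35° C. in 5-10% CO2; MIC is lowest concentration preventing visible growth.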

[12] = tested on: Streptococcus pneumoniae Stpn_Mef 5654; type: cell-based; details: Table 5, Strain ID J (Table 4): S. pneumoniae Stpn_Mef 5654; in µg/mL (unit assumed)
Outline: as §1

E. coli Esco_25922 = type: cell-based; details: Table 5, Strain ID M (Table 4): E. coli Esco_25922; unit assumed
Description: Strains. The bacterial isolates listed in Table 4 were cultivated from −70° C. frozen stocks by two consecutive overnight passages (P1, P2) at 35° C. on 5% blood agar (Remel, Lenexa, Kans.). Chocolate agar (Remel) is used for Haemophilus influenzae. H. influenzae and Streptococcus pneumoniae are incubated in 5-10% CO2
Drug Stock Preparation. To determine the amount of solvent to be used to give the desired final concentration, the formula “weight obtained in mg/final concentration in mg/ml” will be used. It will give the amount of solvent in ml needed to be added to give the desired concentration. For example, if 2.5 mg/ml is the desired concentration and the weight of compound is 13.7 mg, then the amount of solvent to be added is […]. Methanol is used as the solvent to dissolve the test compounds. Further dilution of stock is done in sterile, deionized water. Drug stocks are kept frozen at −70° C., protected from light.
Susceptibility Testing. MICs are determined by the broth microdilution method in accordance with the NCCLS guidelines. In brief, organism suspensions are adjusted to a 0.5 McFarland standard to yield a final inoculum between 3×10^5 and 7×10^5 CFU/ml. Drug dilutions and inocula are made in sterile, cation adjusted Mueller-Hinton Broth (CAMHB) (Remel) for all but S. pneumoniae [CAMHB with 2-5% lysed horse blood (Remel)] and H. influenzae [Haemophilus Test Medium (Remel)]. An inoculum volume of 100 μl is added to wells containing 100 μl of broth with 2-fold serial dilutions of drug. All inoculated microdilution trays are incubated in ambient air at 35° C. for 18-24 hours, except for S. pneumoniae, and H. influenzae (both at 5-10% CO2).
Following appropriate incubation, the MIC is determined and the MIC is defined as the lowest concentration of the drug that prevented visible growth.

Row | SMILES | MIC ([1]; in µg/mL (unit assumed)) | MIC [2] [µg/mL] | MIC [3] | MIC [4] | MIC ([5]; unit assumed) [µg/mL] | MIC ([6]; in µg/mL (unit assumed)) | MIC [7] | MIC [8] | MIC [9] | MIC [10] | MIC [11] [µg/mL] | MIC [12] | MIC (E. coli Esco_25922) [µg/mL] | MIC [5] | MIC [1] | MIC [6] | MIC ([7]; unit assumed) [µg/mL] | MIC ([8]; unit assumed) [µg/mL]
1 | CC[C@H]1OC(=O)[C@H](C)C(=O)[C@H](C)[C@@H](OC2O[C@H](C)C[C@H](N(C)C)[C@H]2O)[C@@](C)(OC)C[C@@H](C)C(=O)[C@H](C)[C@@H]2[C@@H]1OC(=O)N2CCCCn1cnc2ncccc21 (stereo partly shown) [Compound 4713] | 0.1 | 3.13 (≈ 4.05 µM) | 0.4 | 0.4 | 0.1 (≈ 0.13 µM) | 0.4 | =0.5 | =0.5 | =0.5 | =0.5 | 0.78 (≈ 1.01 µM) | 3.13 | 50 (≈ 64.8 µM) | – | – | – | – | –
2 | CC[C@H]1OC(=O)[C@H](C)C(=O)[C@H](C)[C@@H](OC2O[C@H](C)C[C@H](N(C)C)[C@H]2O)[C@@](C)(OC)C[C@@H](C)C(=O)[C@H](C)[C@H]2N(CCCCn3cnc(-c4cccnc4)c3)C(=O)O[C@]12CC (stereo partly shown) [Compound 7280] | 0.1 | 6.25 (≈ 7.57 µM) | 0.2 | 0.2 | – | 0.1 | =0.05 | =0.05 | =0.05 | =0.05 | 0.4 (≈ 0.484 µM) | 0.4 | 25 (≈ 30.3 µM) | =0.05 | – | – | – | –
3 | CC[C@H]1OC(=O)[C@H](C)C(=O)[C@H](C)[C@@H](OC2O[C@H](C)C[C@H](N(C)C)[C@H]2O)[C@@](C)(OC)C[C@@H](C)C(=O)[C@H](C)[C@@H]2[C@@H]1OC(=O)N2CCCCc1ccnc2ccccc12 (stereo partly shown) [Compound 4711] | – | 1.56 (≈ 1.99 µM) | 0.1 | 0.1 | 0.2 (≈ 0.256 µM) | – | =0.5 | =0.5 | =0.5 | =0.5 | 6.25 (≈ 7.99 µM) | 0.1 | 50 (≈ 63.9 µM) | – | =0.05 | =0.5 | – | –
4 | CC[C@H]1OC(=O)[C@H](C)C(=O)[C@H](C)[C@@H](OC2O[C@H](C)C[C@H](N(C)C)[C@H]2O)[C@@](C)(OC)C[C@@H](C)C(=O)[C@H](C)[C@H]2NC(=O)O[C@@H]21 (stereo partly shown) [Compound 4266] | 1.56 | 25 (≈ 41.8 µM) | 3.13 | 3.13 | > 50 | 0.1 | – | – | =0.05 | =0.05 | > 50 | 0.2 | > 50 | – | – | – | 0.1 (≈ 0.167 µM) | 0.2 (≈ 0.334 µM)
5 | CC[C@H]1OC(=O)[C@H](C)C(=O)[C@H](C)[C@@H](OC2O[C@H](C)C[C@H](N(C)C)[C@H]2O)[C@@](C)(OC)C[C@@H](C)C(=O)[C@H](C)[C@H]2N(CCCCn3cnc4ccccc43)C(=O)O[C@]12CC (stereo partly shown) [Compound 7282] | 0.1 | 3.13 (≈ 3.92 µM) | 0.4 | 0.2 | 0.2 (≈ 0.25 µM) | 0.1 | =0.05 | =0.05 | =0.05 | =0.05 | 0.78 (≈ 0.976 µM) | 0.4 | 12.5 (≈ 15.6 µM) | – | – | – | – | –
6 | CC[C@H]1OC(=O)[C@H](C)C(=O)[C@H](C)[C@@H](OC2O[C@H](C)C[C@H](N(C)C)[C@H]2O)[C@@](C)(OC)C[C@@H](C)C(=O)[C@H](C)[C@@H]2[C@@H]1OC(=O)N2CCCn1cnc2cccnc21 (stereo partly shown) [Compound 4716] | 0.78 | 25 (≈ 33 µM) | 6.25 | 12.5 | 25 (≈ 33 µM) | 0.4 | – | =0.5 | =0.5 | =0.5 | > 50 | 0.78 | > 50 | – | – | – | 0.1 (≈ 0.132 µM) | –
7 | CC[C@H]1OC(=O)[C@H](C)C(=O)[C@H](C)[C@@H](OC2O[C@H](C)C[C@H](N(C)C)[C@H]2O)[C@@](C)(OC)C[C@@H](C)C(=O)[C@H](C)[C@@H]2[C@@H]1OC(=O)N2CCCCc1ccc2ccccc2n1 (stereo partly shown) [Compound 5960] | – | 3.13 (≈ 4 µM) | 0.2 | 0.2 | 0.1 (≈ 0.128 µM) | – | =0.05 | =0.05 | =0.05 | =0.05 | 25 (≈ 32 µM) | 0.2 | 25 (≈ 32 µM) | – | =0.05 | =0.05 | – | –
8 | CC[C@H]1OC(=O)[C@H](C)C(=O)[C@H](C)[C@@H](OC2O[C@H](C)C[C@H](N(C)C)[C@H]2O)[C@@](C)(OC)C[C@@H](C)C(=O)[C@H](C)[C@@H]2[C@@H]1OC(=O)N2CCCCn1cnc(-c2ccccc2)c1 (stereo partly shown) [Compound 4710] | – | 3.13 (≈ 3.93 µM) | 0.1 | 0.2 | – | – | =0.5 | =0.5 | =0.5 | =0.5 | 0.2 (≈ 0.251 µM) | 0.2 | 50 (≈ 62.7 µM) | =0.05 | =0.05 | =0.5 | – | –
9 | CC[C@H]1OC(=O)[C@H](C)C(=O)[C@H](C)[C@@H](OC2O[C@H](C)C[C@H](N(C)C)[C@H]2O)[C@@](C)(OC)C[C@@H](C)C(=O)[C@H](C)[C@@H]2[C@@H]1OC(=O)N2CCCn1cnc(-c2ccccc2)c1 (stereo partly shown) [Compound 4714] | 0.4 | > 50 | 6.25 | 6.25 | 6.25 (≈ 7.98 µM) | 0.1 | – | =0.5 | =0.5 | =0.5 | > 50 | 0.4 | > 50 | – | – | – | 0.1 (≈ 0.128 µM) | –
10 | CC[C@H]1OC(=O)[C@H](C)C(=O)[C@H](C)[C@@H](OC2O[C@H](C)C[C@H](N(C)C)[C@H]2O)[C@@](C)(OC)C[C@@H](C)C(=O)[C@H](C)[C@@H]2[C@@H]1OC(=O)N2CCCCn1ccc2ccccc21 (stereo partly shown) [Compound 4717] | 0.1 | 6.25 (≈ 8.12 µM) | 0.2 | 0.4 | 0.4 (≈ 0.519 µM) | – | =0.5 | =0.5 | =0.5 | =0.5 | 6.25 (≈ 8.12 µM) | 0.2 | > 50 | – | – | =0.05 | – | –

From patent US7332476B2, “Pyridyl substituted ketolide antibiotics” (Novartis AG, priority 2003, dated 2008)
